Measured values published in ChEMBL document CHEMBL4507291 (2021).

Key:
[1] = biological target: Activin receptor type-1-like (Homo sapiens) (UniProt P37023)
[2] = biological target: Atypical kinase COQ8A, mitochondrial (Homo sapiens) (UniProt Q8NI60)
[3] = biological target: Calcium/calmodulin-dependent protein kinase type 1B (Homo sapiens) (UniProt Q6P2M8)
[4] = biological target: Casein kinase II subunit alpha' (Homo sapiens) (UniProt P19784)
[5] = biological target: T1, Serine/threonine-protein kinase DCLK2 (Homo sapiens) (UniProt Q8N568)
T1 sequence (whole entry): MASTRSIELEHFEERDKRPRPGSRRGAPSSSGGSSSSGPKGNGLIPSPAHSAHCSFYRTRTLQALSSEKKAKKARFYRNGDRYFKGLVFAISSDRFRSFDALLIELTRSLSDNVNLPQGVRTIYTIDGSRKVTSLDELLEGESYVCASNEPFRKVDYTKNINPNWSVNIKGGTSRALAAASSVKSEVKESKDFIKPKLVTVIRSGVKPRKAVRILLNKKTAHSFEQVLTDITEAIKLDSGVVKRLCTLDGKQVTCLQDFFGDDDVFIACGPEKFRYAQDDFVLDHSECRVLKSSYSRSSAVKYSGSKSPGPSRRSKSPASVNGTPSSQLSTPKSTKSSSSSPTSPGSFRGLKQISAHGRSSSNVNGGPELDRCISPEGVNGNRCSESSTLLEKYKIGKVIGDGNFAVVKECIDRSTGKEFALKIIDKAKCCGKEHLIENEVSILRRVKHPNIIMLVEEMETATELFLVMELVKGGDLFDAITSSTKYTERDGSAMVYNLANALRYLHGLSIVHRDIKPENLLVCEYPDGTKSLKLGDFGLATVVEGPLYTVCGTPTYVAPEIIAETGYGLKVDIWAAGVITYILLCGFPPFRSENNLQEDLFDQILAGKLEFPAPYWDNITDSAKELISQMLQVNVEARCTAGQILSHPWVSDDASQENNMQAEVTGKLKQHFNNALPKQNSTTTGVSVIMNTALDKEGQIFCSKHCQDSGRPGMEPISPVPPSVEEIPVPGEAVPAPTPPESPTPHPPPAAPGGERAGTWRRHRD

[6] = biological target: Ephrin type-A receptor 7 (Homo sapiens) (UniProt Q15375)
[7] = biological target: Mitogen-activated protein kinase 8 (Homo sapiens) (UniProt P45983)
Mitogen-activated protein kinase 8 (Homo sapiens), sequence (P45983 whole entry): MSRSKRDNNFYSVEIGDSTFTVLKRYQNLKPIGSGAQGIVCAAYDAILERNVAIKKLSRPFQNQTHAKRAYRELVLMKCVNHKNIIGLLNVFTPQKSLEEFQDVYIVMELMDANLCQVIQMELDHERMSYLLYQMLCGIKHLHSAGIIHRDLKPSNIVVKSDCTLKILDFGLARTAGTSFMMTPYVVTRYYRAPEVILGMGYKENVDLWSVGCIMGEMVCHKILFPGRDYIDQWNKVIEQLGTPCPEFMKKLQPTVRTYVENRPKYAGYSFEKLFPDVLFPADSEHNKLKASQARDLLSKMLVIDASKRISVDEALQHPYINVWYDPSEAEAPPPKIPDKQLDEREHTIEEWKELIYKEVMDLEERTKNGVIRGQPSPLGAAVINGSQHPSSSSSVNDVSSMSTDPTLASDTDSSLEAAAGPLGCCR

[8] = biological target: Dual specificity mitogen-activated protein kinase kinase 7 (Homo sapiens) (UniProt O14733)
Dual specificity mitogen-activated protein kinase kinase 7 (Homo sapiens), sequence (O14733 whole entry): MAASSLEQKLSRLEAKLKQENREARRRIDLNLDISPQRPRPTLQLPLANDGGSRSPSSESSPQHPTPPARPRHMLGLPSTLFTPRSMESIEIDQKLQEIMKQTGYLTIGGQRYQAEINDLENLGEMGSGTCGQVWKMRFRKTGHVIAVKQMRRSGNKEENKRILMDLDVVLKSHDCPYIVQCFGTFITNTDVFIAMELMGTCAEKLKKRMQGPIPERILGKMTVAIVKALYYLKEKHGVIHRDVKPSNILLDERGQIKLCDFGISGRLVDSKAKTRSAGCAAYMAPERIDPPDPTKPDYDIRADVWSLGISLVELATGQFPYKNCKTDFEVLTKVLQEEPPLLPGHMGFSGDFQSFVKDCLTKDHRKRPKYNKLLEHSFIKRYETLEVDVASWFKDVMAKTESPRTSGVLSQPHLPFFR

[9] = biological target: Serine/threonine-protein kinase 38 (Homo sapiens) (UniProt Q15208)
Serine/threonine-protein kinase 38 (Homo sapiens), sequence (Q15208 2-465 limits assumed): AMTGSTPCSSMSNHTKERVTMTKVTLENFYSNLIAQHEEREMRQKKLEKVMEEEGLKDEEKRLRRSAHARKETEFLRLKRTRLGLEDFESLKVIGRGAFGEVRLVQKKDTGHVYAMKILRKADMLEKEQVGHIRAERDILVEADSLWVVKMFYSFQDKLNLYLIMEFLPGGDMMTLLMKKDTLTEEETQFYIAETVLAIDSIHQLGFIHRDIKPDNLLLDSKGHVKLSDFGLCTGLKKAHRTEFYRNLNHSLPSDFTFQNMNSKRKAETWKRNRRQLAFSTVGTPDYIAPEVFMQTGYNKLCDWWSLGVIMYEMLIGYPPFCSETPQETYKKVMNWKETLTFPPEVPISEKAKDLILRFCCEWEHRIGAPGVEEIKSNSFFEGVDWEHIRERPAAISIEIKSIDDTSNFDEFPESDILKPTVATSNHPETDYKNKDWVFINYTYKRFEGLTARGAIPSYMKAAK

[10] = biological target: Serine/threonine-protein kinase Nek3 (Homo sapiens) (UniProt P51956)
Serine/threonine-protein kinase Nek3 (Homo sapiens), sequence (P51956 whole entry, canonical isoform): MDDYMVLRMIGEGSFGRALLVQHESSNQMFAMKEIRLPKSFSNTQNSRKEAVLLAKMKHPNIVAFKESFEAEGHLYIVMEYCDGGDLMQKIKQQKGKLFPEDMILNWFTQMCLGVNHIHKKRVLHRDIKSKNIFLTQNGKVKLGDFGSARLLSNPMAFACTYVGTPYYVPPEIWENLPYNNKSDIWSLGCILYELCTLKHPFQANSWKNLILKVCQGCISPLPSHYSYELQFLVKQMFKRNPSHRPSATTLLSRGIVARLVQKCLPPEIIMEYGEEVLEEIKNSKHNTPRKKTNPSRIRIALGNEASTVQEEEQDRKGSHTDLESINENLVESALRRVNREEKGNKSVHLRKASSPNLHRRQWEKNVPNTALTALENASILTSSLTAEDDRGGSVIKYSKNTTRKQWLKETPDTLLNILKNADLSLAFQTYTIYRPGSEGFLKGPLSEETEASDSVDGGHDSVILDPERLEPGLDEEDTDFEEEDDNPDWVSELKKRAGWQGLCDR

[11] = biological target: Phosphatidylinositol 4,5-bisphosphate 3-kinase catalytic subunit gamma isoform (Homo sapiens) (UniProt P48736)
Phosphatidylinositol 4,5-bisphosphate 3-kinase catalytic subunit gamma isoform (Homo sapiens), sequence (P48736 whole entry, looked up, canonical isoform): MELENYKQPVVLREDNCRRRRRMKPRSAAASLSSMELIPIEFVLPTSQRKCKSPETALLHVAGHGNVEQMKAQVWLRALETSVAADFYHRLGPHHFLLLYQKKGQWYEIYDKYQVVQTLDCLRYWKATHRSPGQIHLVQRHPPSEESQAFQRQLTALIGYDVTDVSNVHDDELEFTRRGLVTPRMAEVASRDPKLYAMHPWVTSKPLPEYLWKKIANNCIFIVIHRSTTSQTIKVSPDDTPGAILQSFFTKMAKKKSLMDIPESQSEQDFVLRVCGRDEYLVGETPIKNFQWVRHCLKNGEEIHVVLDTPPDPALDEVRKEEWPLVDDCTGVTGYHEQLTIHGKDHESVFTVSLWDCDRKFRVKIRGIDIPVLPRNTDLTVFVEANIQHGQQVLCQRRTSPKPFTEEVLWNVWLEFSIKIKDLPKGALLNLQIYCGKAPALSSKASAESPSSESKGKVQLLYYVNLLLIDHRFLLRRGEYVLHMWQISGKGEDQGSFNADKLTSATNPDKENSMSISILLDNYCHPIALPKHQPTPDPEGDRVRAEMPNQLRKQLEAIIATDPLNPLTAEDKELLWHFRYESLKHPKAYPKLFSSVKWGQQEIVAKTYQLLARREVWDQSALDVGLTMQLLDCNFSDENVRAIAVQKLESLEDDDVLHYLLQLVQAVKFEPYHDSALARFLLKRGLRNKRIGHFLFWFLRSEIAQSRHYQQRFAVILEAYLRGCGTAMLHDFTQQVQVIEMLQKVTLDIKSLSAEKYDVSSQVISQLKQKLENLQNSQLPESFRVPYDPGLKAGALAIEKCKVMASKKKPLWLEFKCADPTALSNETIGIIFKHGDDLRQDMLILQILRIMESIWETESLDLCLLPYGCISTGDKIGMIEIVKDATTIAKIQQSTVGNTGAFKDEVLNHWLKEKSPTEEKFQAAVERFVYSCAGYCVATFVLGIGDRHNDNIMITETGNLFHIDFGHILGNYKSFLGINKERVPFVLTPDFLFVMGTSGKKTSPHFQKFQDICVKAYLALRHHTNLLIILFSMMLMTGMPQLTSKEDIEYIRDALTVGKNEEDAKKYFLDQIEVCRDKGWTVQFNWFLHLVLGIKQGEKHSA

[12] = biological target: Rho-associated protein kinase 1 (Homo sapiens) (UniProt Q13464)
[13] = biological target: T2, Serine/threonine-protein kinase Sgk2 (Homo sapiens) (UniProt Q9HBY8)
T2 sequence (whole entry): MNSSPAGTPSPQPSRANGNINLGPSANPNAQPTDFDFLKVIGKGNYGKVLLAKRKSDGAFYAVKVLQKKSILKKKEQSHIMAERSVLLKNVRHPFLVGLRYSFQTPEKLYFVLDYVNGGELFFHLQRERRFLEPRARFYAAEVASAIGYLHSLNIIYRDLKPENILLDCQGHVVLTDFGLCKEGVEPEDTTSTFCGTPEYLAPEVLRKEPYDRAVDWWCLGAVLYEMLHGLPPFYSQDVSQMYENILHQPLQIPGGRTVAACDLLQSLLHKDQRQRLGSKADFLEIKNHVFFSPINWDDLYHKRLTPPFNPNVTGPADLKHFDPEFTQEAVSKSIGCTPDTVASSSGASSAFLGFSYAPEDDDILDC

[14] = biological target: SNF-related serine/threonine-protein kinase (Homo sapiens) (UniProt Q9NRH2)
SNF-related serine/threonine-protein kinase (Homo sapiens), sequence (Q9NRH2 whole entry): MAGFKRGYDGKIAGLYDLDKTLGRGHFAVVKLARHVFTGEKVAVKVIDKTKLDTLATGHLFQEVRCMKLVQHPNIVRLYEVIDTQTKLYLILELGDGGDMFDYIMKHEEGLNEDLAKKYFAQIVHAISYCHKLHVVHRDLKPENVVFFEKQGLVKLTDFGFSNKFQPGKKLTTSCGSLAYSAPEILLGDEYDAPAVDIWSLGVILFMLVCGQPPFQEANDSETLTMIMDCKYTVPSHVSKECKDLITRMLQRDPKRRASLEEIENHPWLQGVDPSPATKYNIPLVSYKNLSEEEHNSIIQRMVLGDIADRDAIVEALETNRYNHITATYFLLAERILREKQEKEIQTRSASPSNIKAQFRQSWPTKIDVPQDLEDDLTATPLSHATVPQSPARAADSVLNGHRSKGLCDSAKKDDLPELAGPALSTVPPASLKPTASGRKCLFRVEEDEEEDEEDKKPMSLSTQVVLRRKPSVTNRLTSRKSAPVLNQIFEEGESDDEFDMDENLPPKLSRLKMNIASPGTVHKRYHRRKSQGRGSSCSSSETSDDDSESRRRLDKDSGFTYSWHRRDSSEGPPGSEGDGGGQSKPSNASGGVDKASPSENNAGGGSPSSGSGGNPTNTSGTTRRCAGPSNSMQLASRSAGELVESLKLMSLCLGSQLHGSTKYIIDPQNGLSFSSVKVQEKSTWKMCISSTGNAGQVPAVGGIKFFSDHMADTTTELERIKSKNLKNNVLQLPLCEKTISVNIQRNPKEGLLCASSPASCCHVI

[15] = biological target: T3, TGF-beta receptor type-1 (Homo sapiens) (UniProt P36897)
T3 sequence (whole entry): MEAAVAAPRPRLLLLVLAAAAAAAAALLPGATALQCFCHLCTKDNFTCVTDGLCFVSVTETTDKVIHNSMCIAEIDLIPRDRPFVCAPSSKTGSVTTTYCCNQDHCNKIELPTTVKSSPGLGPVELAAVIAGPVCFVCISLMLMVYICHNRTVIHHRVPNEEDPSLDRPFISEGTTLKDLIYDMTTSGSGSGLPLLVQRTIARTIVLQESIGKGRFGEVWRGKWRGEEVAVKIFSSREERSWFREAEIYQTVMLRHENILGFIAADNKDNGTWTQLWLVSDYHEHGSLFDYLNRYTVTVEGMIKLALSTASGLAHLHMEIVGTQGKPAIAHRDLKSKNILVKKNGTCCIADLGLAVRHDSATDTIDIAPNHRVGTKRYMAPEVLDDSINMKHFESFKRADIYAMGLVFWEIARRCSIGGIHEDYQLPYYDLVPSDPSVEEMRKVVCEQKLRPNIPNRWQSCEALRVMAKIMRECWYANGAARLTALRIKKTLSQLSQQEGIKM

[16] = Compound concentration 1000.0 nM
[17] = Compound concentration 100.0 nM

Measured: residual activity

Activin receptor type-1-like (Homo sapiens), sequence (P37023 whole entry): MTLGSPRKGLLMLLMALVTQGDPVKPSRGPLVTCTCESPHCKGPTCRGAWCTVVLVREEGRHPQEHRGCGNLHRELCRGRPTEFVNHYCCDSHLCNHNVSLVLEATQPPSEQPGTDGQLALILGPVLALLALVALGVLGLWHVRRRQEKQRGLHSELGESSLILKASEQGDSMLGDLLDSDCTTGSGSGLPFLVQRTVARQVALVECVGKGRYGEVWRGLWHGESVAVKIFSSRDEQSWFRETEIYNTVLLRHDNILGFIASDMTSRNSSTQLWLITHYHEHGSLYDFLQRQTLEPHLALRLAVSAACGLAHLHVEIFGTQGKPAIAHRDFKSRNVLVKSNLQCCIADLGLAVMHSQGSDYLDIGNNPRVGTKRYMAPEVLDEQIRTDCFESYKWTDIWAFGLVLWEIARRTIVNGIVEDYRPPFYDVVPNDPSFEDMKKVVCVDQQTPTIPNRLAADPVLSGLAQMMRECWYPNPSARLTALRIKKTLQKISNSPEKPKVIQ
Casein kinase II subunit alpha' (Homo sapiens), sequence (P19784 whole entry, looked up): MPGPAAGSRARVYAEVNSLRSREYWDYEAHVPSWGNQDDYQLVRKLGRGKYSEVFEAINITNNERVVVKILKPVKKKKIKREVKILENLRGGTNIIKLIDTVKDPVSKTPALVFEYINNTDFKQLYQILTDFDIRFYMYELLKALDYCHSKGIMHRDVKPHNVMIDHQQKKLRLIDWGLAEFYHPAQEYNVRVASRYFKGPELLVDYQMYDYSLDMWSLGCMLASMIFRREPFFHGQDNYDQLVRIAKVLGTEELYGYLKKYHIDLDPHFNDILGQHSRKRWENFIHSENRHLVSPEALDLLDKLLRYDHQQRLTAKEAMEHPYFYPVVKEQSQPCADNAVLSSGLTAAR
Calcium/calmodulin-dependent protein kinase type 1B (Homo sapiens), sequence (Q6P2M8 whole entry): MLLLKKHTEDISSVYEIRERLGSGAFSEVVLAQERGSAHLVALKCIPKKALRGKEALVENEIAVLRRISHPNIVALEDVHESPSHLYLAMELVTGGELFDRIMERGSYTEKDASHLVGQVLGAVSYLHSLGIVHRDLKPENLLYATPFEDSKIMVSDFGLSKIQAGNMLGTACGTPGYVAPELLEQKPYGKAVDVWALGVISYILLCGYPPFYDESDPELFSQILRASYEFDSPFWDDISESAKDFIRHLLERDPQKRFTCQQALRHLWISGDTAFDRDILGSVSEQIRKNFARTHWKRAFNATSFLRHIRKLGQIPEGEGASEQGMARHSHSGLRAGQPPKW

C[C@@H]1CN(c2cc(-c3nn(C)c4ccc(OC5(C)CC5)cc34)ncn2)C[C@H](C)O1 [MLi-2-NC]
inactive: [1]; [16] 63% | [2]; [16] 100% | [3]; [16] 100% | [4]; [16] 86% | [5]; [16] 100% | [6]; [16] 99% | [7]; [16] 82% | [8]; [16] 74% | [9]; [16] 57% | [10]; [16] 99% | [11]; [16] 100% | [12]; [16] 100% | [13]; [16] 58% | [14]; [16] 92% | [15]; [16] 89%

C[C@@H]1CN(c2cc(-c3n[nH]c4ccc(OC5(C)CC5)cc34)ncn2)C[C@H](C)O1 [MLi-2]
inactive: [1]; [17] 94% | [2]; [17] 85% | [3]; [17] 67% | [4]; [17] 100% | [5]; [17] 89% | [6]; [17] 82% | [7]; [17] 63% | [8]; [17] 77% | [9]; [17] 87% | [10]; [17] 76% | [11]; [17] 72% | [12]; [17] 80% | [13]; [17] 84% | [14]; [17] 94% | [15]; [17] 100%
